These results are taken from patent publication US11957759B1, “Rapidly accelerated fibrosarcoma (RAF) degrading compounds and associated methods of use” (Arvinas Operations, Inc., priority 2022, dated 2024).

A value given as a limit tells only on which side of the number the result lay.

For one assay, the target named is T1, B-RAF V600E (Homo sapiens, UniProt P15056, V600E).
T1 construct: expressed in transfected cells; host or cells: T-Rex 293 cells (Invitrogen #R71007)
The assay can be described thus: Target protein degradation, assay A: T-Rex 293 cells, HA-B-RAF_V600E, 96 well format. To be noted: T-Rex 293 HA-B-RAF_V600E cells, 24 hours, Examples 1-82. Format: cell-based. In outline:
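T-Rex 293 cells stably expressing doxycycline-inducible HA-B-RAF V600E (1 ng/mL doxycycline) treated 24 h at 37 °C with compound, final 1 μM to 0.1 nM in 0.1% DMSO. Fixed, permeabilized cells immunostained for HA and imaged by high-content microscopy; DC50 and Dmax (% of control) reported.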

Another assay concerns the target T2, B-RAF G466V (Homo sapiens, UniProt P15056, G466V).
T2 construct: expressed in transfected cells; host or cells: T-Rex 293 cells (Invitrogen #R71007)
The assay can be described thus: Target protein degradation, assay B: T-Rex 293 cells, HA-B-RAF_G466V, 96 well format. It is filed as cell-based. Conditions: T-Rex 293 HA-B-RAF_G466V cells, 24 hours, Examples 1-82. In outline: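 T-Rex 293 cells stably carrying doxycycline-inducible HA-B-RAF G466V (0.75 ng/mL doxycycline) treated 24 h at 37 °C with compound, 30 nM to 3 pM final, 0.1% DMSO. Fixed, permeabilised, anti-HA immunofluorescence quantified by high-content imaging; DC50 and Dmax (% of control) derived.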

T2 sequence (P15056 whole entry G466V): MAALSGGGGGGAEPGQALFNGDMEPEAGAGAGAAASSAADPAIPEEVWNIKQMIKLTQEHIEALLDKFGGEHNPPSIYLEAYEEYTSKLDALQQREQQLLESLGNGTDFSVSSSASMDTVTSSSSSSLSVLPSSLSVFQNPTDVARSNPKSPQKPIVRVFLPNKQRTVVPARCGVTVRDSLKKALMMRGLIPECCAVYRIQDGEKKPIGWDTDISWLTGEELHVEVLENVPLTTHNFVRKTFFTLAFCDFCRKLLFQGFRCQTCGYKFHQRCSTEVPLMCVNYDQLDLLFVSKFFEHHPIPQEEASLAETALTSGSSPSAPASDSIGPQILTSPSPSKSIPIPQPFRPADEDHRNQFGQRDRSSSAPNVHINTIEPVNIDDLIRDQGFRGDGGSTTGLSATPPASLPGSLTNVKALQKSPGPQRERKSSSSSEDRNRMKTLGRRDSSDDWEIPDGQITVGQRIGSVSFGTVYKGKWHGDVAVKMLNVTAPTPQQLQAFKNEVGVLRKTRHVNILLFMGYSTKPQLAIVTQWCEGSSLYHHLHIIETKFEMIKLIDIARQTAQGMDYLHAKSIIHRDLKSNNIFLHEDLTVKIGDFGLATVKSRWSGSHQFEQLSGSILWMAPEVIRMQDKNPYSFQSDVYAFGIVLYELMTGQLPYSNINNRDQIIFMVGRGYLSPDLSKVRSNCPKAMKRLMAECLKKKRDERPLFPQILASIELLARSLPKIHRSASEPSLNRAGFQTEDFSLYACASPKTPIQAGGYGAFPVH
T1 sequence (P15056 whole entry V600E): as the sequence (P15056 whole entry G466V) above, with V466G, V600E counted along it

What is called DC50 is the midpoint of the concentration-degradation curve. Read a high DC50 as degradation only at high concentration. As a reminder, the Dmax is the largest share of the target that was removed. Higher therefore signals deep degradation. Take `N#Cc1c(NS(=O)(=O)N2CC[C@@H](F)C2)ccc(F)c1Oc1ccc2ncn(-c3ccc(N4CCN(CC5CCN(c6ccc7c(c6F)CN([C@H]6CCC(=O)NC6=O)C7=O)CC5)CC4)cc3)c(=O)c2c1` [Example 73, (3R)—N-(2-cyano-3-{[3-(4-{4-[(1-{2-[(3S)-2,6-dioxopiperidin-3-yl]-4-fluoro-1-oxo-2,3-dihydro-1H-isoindol-5-yl}piperidin-4-yl)methyl]piperazin-1-yl}phenyl)-4-oxo-3,4-dihydroquinazolin-6-yl]oxy}-4-fluorophenyl)-3-fluoropyrrolidine-1-sulfonamide]: the DC50 on B-RAF V600E lay within 5 to 50 nM; at B-RAF G466V it was 1 to 10 nM. Further, the Dmax at B-RAF V600E and on B-RAF G466V was 35 to 70% throughout.
Consider `N#Cc1c(NS(=O)(=O)N2CC[C@@H](F)C2)ccc(F)c1Oc1ccc2ncn(-c3ccc(N4CCN(CC5CCN(c6cccc7c6ccn7C6CCC(=O)NC6=O)CC5)CC4)cc3)c(=O)c2c1` (stereo partly drawn) [Example 74, (3R)—N-{2-cyano-3-[(3-{4-[4-({1-[1-(2,6-dioxopiperidin-3-yl)-1H-indol-4-yl]piperidin-4-yl}methyl)piperazin-1-yl]phenyl}-4-oxo-3,4-dihydroquinazolin-6-yl)oxy]-4-fluorophenyl}-3-fluoropyrrolidine-1-sulfonamide], for which, on B-RAF V600E, the DC50 lay in the range of 50 to 500 nM and the Dmax fell in the range of 35 to 70%. Besides, on B-RAF G466V, the DC50 lay in the range of 1 to 10 nM and the Dmax is not above 35%.
Regarding `N#Cc1c(NS(=O)(=O)N2CC[C@@H](F)C2)ccc(F)c1Oc1ccc2ncn(-c3ccn(C4CCN(CC5CCN(c6ccc7c(c6)CN(C6CCC(=O)NC6=O)C7=O)CC5)CC4)n3)c(=O)c2c1` (stereo partly drawn) [Example 75, (3R)—N-{2-cyano-3-[(3-{1-[1-({1-[2-(2,6-dioxopiperidin-3-yl)-1-oxo-2,3-dihydro-1H-isoindol-5-yl]piperidin-4-yl}methyl)piperidin-4-yl]-1H-pyrazol-3-yl}-4-oxo-3,4-dihydroquinazolin-6-yl)oxy]-4-fluorophenyl}-3-fluoropyrrolidine-1-sulfonamide], at B-RAF V600E, the DC50 lay in the range of 50 to 500 nM and the Dmax was 35 to 70%. On B-RAF G466V, this compound returned a DC50 of 1 to 10 nM and a Dmax not above 35%.
The matching figures for `N#Cc1c(NS(=O)(=O)N2CC[C@@H](F)C2)ccc(F)c1Oc1ccc2ncn(-c3ccc(N4CCN(CC5CN(c6ccc7c(c6)CN([C@H]6CCC(=O)NC6=O)C7=O)C5)CC4)cc3)c(=O)c2c1` [Example 76, (3R)—N-(2-cyano-3-{[3-(4-{4-[(1-{2-[(3S)-2,6-dioxopiperidin-3-yl]-1-oxo-2,3-dihydro-1H-isoindol-5-yl}azetidin-3-yl)methyl]piperazin-1-yl}phenyl)-4-oxo-3,4-dihydroquinazolin-6-yl]oxy}-4-fluorophenyl)-3-fluoropyrrolidine-1-sulfonamide]: 5 to 50 nM, 35 to 70%, 1 to 10 nM and not above 35%.
Consider `N#Cc1c(NS(=O)(=O)N2CC[C@@H](F)C2)ccc(F)c1Oc1ccc2ncn(-c3ccc(N4CCN(CC5CCN(c6ccc7c(c6)CN([C@H]6CCC(=O)NC6=O)C7=O)CC5)CC4)cc3)c(=O)c2c1` [Example 77, (3R)—N-(2-cyano-3-{[3-(4-{4-[(1-{2-[(3S)-2,6-dioxopiperidin-3-yl]-1-oxo-2,3-dihydro-1H-isoindol-5-yl}piperidin-4-yl)methyl]piperazin-1-yl}phenyl)-4-oxo-3,4-dihydroquinazolin-6-yl]oxy}-4-fluorophenyl)-3-fluoropyrrolidine-1-sulfonamide], for which the figures for the DC50 on B-RAF V600E and on B-RAF G466V were 50 to 500 nM and 1 to 10 nM, respectively. Further, the Dmax at B-RAF V600E and on B-RAF G466V was 35 to 70% in each case.
At B-RAF V600E, `Cn1c(=O)n(C2CCC(=O)NC2=O)c2ccc(N3CCC(CN4CCN(c5ccc(-n6cnc7ccc(Oc8c(F)ccc(NS(=O)(=O)N9CC[C@@H](F)C9)c8C#N)cc7c6=O)cc5)CC4)CC3)cc21` (stereo partly drawn) [Example 78, (3R)—N-{2-cyano-3-[(3-{4-[4-({1-[1-(2,6-dioxopiperidin-3-yl)-3-methyl-2-oxo-2,3-dihydro-1H-1,3-benzodiazol-5-yl]piperidin-4-yl}methyl)piperazin-1-yl]phenyl}-4-oxo-3,4-dihydroquinazolin-6-yl)oxy]-4-fluorophenyl}-3-fluoropyrrolidine-1-sulfonamide] returned a half-maximal degradation concentration (DC50) of 5 to 50 nM and a Dmax of 35 to 70%. Also, at B-RAF G466V, the DC50 was 1 to 10 nM and the Dmax fell in the range of 35 to 70%.
On B-RAF V600E, `N#Cc1c(NS(=O)(=O)N2CC[C@@H](F)C2)ccc(F)c1Oc1ccc2ncn(-c3ccc(N4CCC(CN5CCC(c6ccc7c(c6F)CN(C6CCC(=O)NC6=O)C7=O)CC5)CC4)cc3)c(=O)c2c1` (stereo partly drawn) [Example 79, (3R)—N-{2-cyano-3-[(3-{4-[4-({4-[2-(2,6-dioxopiperidin-3-yl)-4-fluoro-1-oxo-2,3-dihydro-1H-isoindol-5-yl]piperidin-1-yl}methyl)piperidin-1-yl]phenyl}-4-oxo-3,4-dihydroquinazolin-6-yl)oxy]-4-fluorophenyl}-3-fluoropyrrolidine-1-sulfonamide] returned a DC50 of 50 to 500 nM and a Dmax of 35 to 70%. Further, on B-RAF G466V, the DC50 is not above 1 nM and the Dmax fell in the range of 35 to 70%.
Consider `N#Cc1c(NS(=O)(=O)N2CC[C@@H](F)C2)ccc(F)c1Oc1ccc2ncn(-c3ccc(N4CCC(OC5CCN(c6ccc7c(c6)CN(C6CCC(=O)NC6=O)C7=O)CC5)CC4)cc3)c(=O)c2c1` (stereo partly drawn) [Example 82, (3R)—N-{2-cyano-3-[(3-{4-[4-({1-[2-(2,6-dioxopiperidin-3-yl)-1-oxo-2,3-dihydro-1H-isoindol-5-yl]piperidin-4-yl}oxy)piperidin-1-yl]phenyl}-4-oxo-3,4-dihydroquinazolin-6-yl)oxy]-4-fluorophenyl}-3-fluoropyrrolidine-1-sulfonamide], for which, on B-RAF V600E, the 50% degradation concentration (DC50) lay in the range of 50 to 500 nM and the Dmax was in the range of 35 to 70%. Moreover, at B-RAF G466V, the DC50 fell in the range of 1 to 10 nM and the Dmax was not above 35%.
